Source: patent publication US20250320202A1, “PRMT5 INHIBITOR, PREPARATION METHOD THEREFOR, AND PHARMACEUTICAL USE THEREOF” (Abbisko Therapeutics Co., Ltd., priority 2022, published 2025)

Test system: HCT116 MTAP knockout cells
Assay: Human colon cancer HCT116 cell proliferation inhibition test (CellTiter-Glo, 6 days), MTAP knockout cells
Assay type: cell-based
Conditions: HCT-116, 144 h
Experimental: 1. HCT116 MTAP knockout and MTAP wild-type cells were plated in 96-well flat bottom plates, and cultured overnight with McCoy's 5A medium containing 10% fetal bovine serum+1% penicillin-streptomycin at 37° C. and 5% CO2.
2. On the next day, the compound was dissolved with DMSO, diluted with DMSO and medium successively and transferred to the cell plate. The final concentration of the compound was 10 μM, the compound was diluted 4 times, with 9 concentration gradients, and DMSO control was added.
3. Cells that have not been treated with the compound were removed. CellTiter-Glo Luminescent Cell Viability Assay (Promega) was used to detect cell viability, the operation was performed with reference to the package insert of the kit, and then the cell plate was placed on EnVision Multilabel Reader to detect the cold light signal.
4. Meanwhile, the cell plate treated with the compound was cultured at 37° C. and 5% CO2 for 6 consecutive days.
5. Then, CellTiter-Glo was also used to detect cell viability.
6. Finally, the four-parameter dose-response curve module of GraphPad Prism v 9.2.0 software was used to plot the dose-response curve and calculate the IC50 for proliferation inhibition (unit: nM).

Row | SMILES | IC50 [nM]
1 | Nc1nc2ccc(C(=O)N(CC3CC3)[C@H]3CCc4nc(C(F)(F)F)ccc43)cc2c2cnccc12 [Example 1, (S)-5-amino-N-(cyclopropylmethyl)-N-(2-(trifluoromethyl)-6,7-dihydro-5H-cyclopenta[b]pyridin-5-yl)benzo[c][2,6]naphthyridin-9-carboxamide] | 792
2 | Cn1ncc2c(N)nc3cc(F)c(C(=O)N(Cc4ncccn4)C4CCc5cc(C(F)(F)F)ccc54)cc3c21 (centres unmarked) [Example 7, 4-amino-7-fluoro-1-methyl-N-(pyrimidin-2-ylmethyl)-N-(5-(trifluoromethyl)-2,3-dihydro-1H-inden-1-yl)-1H-pyrazol[4,3-c]quinolin-8-carboxamide] | 57
3 | Cn1cc(N(C(=O)c2cc3c(cc2F)nc(N)c2cnn(C)c23)C2CCc3cc(C(F)(F)F)ccc32)cn1 (centres unmarked) [Example 8, 4-amino-7-fluoro-1-methyl-N-(1-methyl-1H-pyrazol-4-yl)-N-(5-(trifluoromethyl)-2,3-dihydro-1H-inden-1-yl)-1H-pyrazolo[4,3-c]quinolin-8-carboxamide] | 4
4 | Cn1ncc2c(N)nc3cc(F)c(C(=O)N(Cc4cscn4)C4CCc5cc(C(F)(F)F)ccc54)cc3c21 (centres unmarked) [Example 95, 4-amino-7-fluoro-1-methyl-N-(thiazol-4-ylmethyl)-N-(5-(trifluoromethyl)-2,3-dihydro-1H-inden-1-yl)-1H-pyrazolo[4,3-c]quinolin-8-carboxamide] | 52
5 | Nc1nc2ccc(C(=O)N(CC3CC3)C3CCc4nc(C(F)(F)F)ccc43)cc2c2cnccc12 (centres unmarked) [Example 110, 5-amino-N-(cyclopropylmethyl)-N-(2-(trifluoromethyl)-6,7-dihydro-5H-cyclopenta[b]pyridin-5-yl)benzo[c][2,6]naphthyridin-9-carboxamide] | 116
6 | Nc1nc2ccc(C(=O)N(CC3CC3)C3COc4nc(C(F)(F)F)ccc43)cc2c2cnccc12 (centres unmarked) [Example 111, 5-amino-N-(cyclopropylmethyl)-N-(6-(trifluoromethyl)-2,3-dihydrofuro[2,3-b]pyridin-3-yl)benzo[c][2,6]naphthyridin-9-carboxamide] | 115
7 | Cn1ncc2c(N)nc3cc(F)c(C(=O)N(c4cscn4)C4CCc5cc(C(F)(F)F)ccc54)cc3c21 (centres unmarked) [Example 152, 4-amino-7-fluoro-1-methyl-N-(thiazol-4-yl)-N-(5-(trifluoromethyl)-2,3-dihydro-1H-inden-1-yl)-1H-pyrazolo[4,3-c]quinolin-8-carboxamide] | 4
8 | Cn1ncc2c(N)nc3cc(F)c(C(=O)N(CC(F)(F)F)C4COc5cc(C(F)(F)F)ccc54)cc3c21 (centres unmarked) [Example 157, 4-amino-7-fluoro-1-methyl-N-(2,2,2-trifluoroethyl)-N-(6-(trifluoromethyl)-2,3-dihydrobenzofuran-3-yl)-1H-pyrazolo[4,3-c]quinolin-8-carboxamide] | 139
9 | Nc1nc2ccc(C(=O)N(c3ncns3)[C@@H]3CCc4cc(C(F)(F)F)ccc43)cc2c2cnccc12 [Example 191, (R)-5-amino-N-(1,2,4-thiadiazol-5-yl)-N-(5-(trifluoromethyl)-2,3-dihydro-1H-inden-1-yl)benzo[c][2,6]naphthyridin-9-carboxamide] | 2900
10 | Nc1nc2ccc(C(=O)N(CC3CC3)[C@H]3COc4nc(C(F)(F)F)ccc43)cc2c2cnccc12 [Example 196, (R)-5-amino-N-(cyclopropylmethyl)-N-(6-(trifluoromethyl)-2,3-dihydrofuro[2,3-b]pyridin-3-yl)benzo[c][2,6]naphthyridin-9-carboxamide] | 1530
11 | Nc1nc2ccc(C(=O)N(CC3CC3)[C@@H]3CCc4nc(C(F)(F)F)ccc43)cc2c2cnccc12 [Example 199, (R)-5-amino-N-(cyclopropylmethyl)-N-(2-(trifluoromethyl)-6,7-dihydro-5H-cyclopenta[b]pyridin-5-yl)benzo[c][2,6]naphthyridin-9-carboxamide] | 134
12 | Cn1ncc2c(N)nc3cc(F)c(C(=O)N(c4cscn4)[C@@H]4CCc5cc(C(F)(F)F)ccc54)cc3c21 [Example 211, (R)-4-amino-7-fluoro-1-methyl-N-(thiazol-4-yl)-N-(5-(trifluoromethyl)-2,3-dihydro-1H-inden-1-yl)-1H-pyrazolo[4,3-c]quinolin-8-carboxamide] | 4
13 | Nc1nc2ccc(C(=O)N(c3cscn3)[C@@H]3CCc4cc(C(F)(F)F)ccc43)cc2c2cnccc12 [Example 212, (R)-5-amino-N-(thiazol-4-yl)-N-(5-(trifluoromethyl)-2,3-dihydro-1H-inden-1-yl)benzo[c][2,6]naphthyridin-9-carboxamide] | 16
14 | Cn1ncc2c(N)nc3ccc(C(=O)N(c4ncccn4)C4CCc5cc(C(F)(F)F)ccc54)cc3c21 (centres unmarked) [Example 214, 4-amino-1-methyl-N-(pyrimidin-2-yl)-N-(5-(trifluoromethyl)-2,3-dihydro-1H-inden-1-yl)-1H-pyrazolo[4,3-c]quinolin-8-carboxamide] | 325
15 | COC[C@@H](C)N(C(=O)c1ccc2nc(N)c3ccncc3c2c1)[C@H]1CCc2cc(C(F)(F)F)ccc21 [Example 215, 5-amino-N-((R)-1-methoxypropan-2-yl)-N-((S)-5-(trifluoromethyl)-2,3-dihydro-1H-inden-1-yl)benzo[c][2,6]naphthyridin-9-carboxamide] | 6930
16 | COC[C@@H](C)N(C(=O)c1ccc2nc(N)c3ccncc3c2c1)[C@@H]1CCc2cc(C(F)(F)F)ccc21 [Example 216, 5-amino-N-((R)-1-methoxypropan-2-yl)-N-((R)-5-(trifluoromethyl)-2,3-dihydro-1H-inden-1-yl)benzo[c][2,6]naphthyridin-9-carboxamide] | 940
17 | COC[C@@H](C)N(C(=O)c1cc2c3c(c(N)nc2cc1F)COC3)[C@H]1CCc2cc(C(F)(F)F)ccc21 [Example 217, 4-amino-7-fluoro-N-((R)-1-methoxypropan-2-yl)-N-((S)-5-(trifluoromethyl)-2,3-dihydro-1H-inden-1-yl)-1,3-dihydrofuro[3,4-c]quinolin-8-carboxamide] | 2360
18 | COC[C@@H](C)N(C(=O)c1cc2c3c(c(N)nc2cc1F)COC3)[C@@H]1CCc2cc(C(F)(F)F)ccc21 [Example 218, 4-amino-7-fluoro-N-((R)-1-methoxypropan-2-yl)-N-((R)-5-(trifluoromethyl)-2,3-dihydro-1H-inden-1-yl)-1,3-dihydrofuro[3,4-c]quinolin-8-carboxamide] | 485
19 | C[C@H](c1ncccn1)N(C(=O)c1ccc2nc(N)c3ccncc3c2c1)[C@@H]1CCc2cc(C(F)(F)F)ccc21 [Example 222, 5-amino-N-((R)-1-(pyrimidin-2-yl)ethyl)-N-((R)-5-(trifluoromethyl)-2,3-dihydro-1H-inden-1-yl)benzo[c][2,6]naphthyridin-9-carboxamide] | 217
20 | C[C@H](c1ncccn1)N(C(=O)c1cc2c3c(c(N)nc2cc1F)COC3)[C@@H]1CCc2cc(C(F)(F)F)ccc21 [Example 223, 4-amino-7-fluoro-N-((R)-1-(pyrimidin-2-yl)ethyl)-N-((R)-5-(trifluoromethyl)-2,3-dihydro-1H-inden-1-yl)-1,3-dihydrofuro[3,4-c]quinolin-8-carboxamide] | 118
